In patent US9969775B2, “CGRP antagonist peptides” (Ferring B.V., priority 2015, dated 2018):
Numbered stars: 1 amine (or outer) side, 2 acyl side, 3 side chain; on linkers, the order of the positions; unused ones are H or OH. Bridge positions count the residues as written; N and C are the ends. Square brackets hold non-standard residues; d marks the D form. Peptide text beside a SMILES is read from it. * marks the point of attachment. Phe(2-CONH2) = NC(=O)c1ccccc1C[C@H](N)C(=O)O; X15 = N#CN=C(N)NCCC[C@H](N[*:1])C(=O)[*:2]; X5 = O=C([C@H](Cc1ccc(CO)cc1)N[*:1])[*:2]; Triazol3yl(1,2,4-5-NH2) = Nc1nc(*)n[nH]1; Arg(Me) = CNC(=N)NCCC[C@H](N)C(=O)O; Orn(iPr) = CC(C)NCCC[C@H](N)C(=O)O; Oxazole2carbonyl = O=C(c1ncco1)*; 3Pal = N[C@@H](Cc1cccnc1)C(=O)O; Picolinoyl = O=C(c1ccccn1)*; Orn = NCCC[C@H](N)C(=O)O; X1 = O=C(c1ncccc1F)*

Experiments:
[1] = target: T1, hAM2 receptor (CALCRL:RAMP3) (Homo sapiens, UniProt O60896+Q16602); assay: AM2 receptor antagonist activity measured by cAMP assay (HTRF); format: cell-based; settings: for Emax: % MPE: percent of the maximal possible effect, read-out: hAM2-R Efficacy Antag (%) Ave; for Emax / IC50: agonist human adrenomedullin; for IC50: GeneBLAzer CALCRL:RAMP3-CRE-bla Freestyle 293F cells, read-out: hAM2-R IC50 Ave; for selectivity ratio CGRP/AM2: selectivity ratio for hCGRP over hAM2, calculated from the IC50 values
T1 construct: expressed in transfected cells; host or cells: GeneBLAzer CALCRL:RAMP3-CRE-bla Freestyle 293F
T1 sequence (Q16602 23-461): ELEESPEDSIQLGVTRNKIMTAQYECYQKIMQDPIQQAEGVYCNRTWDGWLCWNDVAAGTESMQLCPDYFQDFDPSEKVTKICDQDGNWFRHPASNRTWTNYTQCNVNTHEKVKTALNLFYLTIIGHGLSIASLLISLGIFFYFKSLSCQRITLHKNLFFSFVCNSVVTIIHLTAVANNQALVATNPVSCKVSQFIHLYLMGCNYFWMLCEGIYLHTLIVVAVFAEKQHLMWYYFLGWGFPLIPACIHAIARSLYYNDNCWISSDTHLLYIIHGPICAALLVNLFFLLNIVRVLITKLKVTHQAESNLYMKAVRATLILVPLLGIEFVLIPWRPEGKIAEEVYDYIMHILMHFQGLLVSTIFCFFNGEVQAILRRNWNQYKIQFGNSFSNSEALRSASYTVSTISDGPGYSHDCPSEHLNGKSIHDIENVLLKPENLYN
T1 sequence (O60896 24-148): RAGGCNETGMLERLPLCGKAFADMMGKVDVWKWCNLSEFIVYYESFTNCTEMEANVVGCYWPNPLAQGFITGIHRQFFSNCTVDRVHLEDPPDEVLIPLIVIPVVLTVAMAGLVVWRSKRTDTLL

[2] = target: T2, hCGRP receptor (CALCRL:RAMP1) (Homo sapiens, UniProt O60894+Q16602); assay: CGRP receptor antagonist activity measured by cAMP assay (HTRF); format: cell-based; settings: agonist human α-CGRP; for Emax: % MPE: percent of the maximal possible effect, read-out: hCGRP-R Efficacy Antag (%) Ave; for IC50: GeneBLAzer CALCRL:RAMP1-CRE-bla Freestyle 293F cells, 30 minutes, read-out: hCGRP-R IC50 Ave
T2 construct: host or cells: GeneBLAzer CALCRL:RAMP1-CRE-bla Freestyle 293F
T2 sequence (Q16602 23-461): as the sequence (Q16602 23-461) above
T2 sequence (O60894 27-148): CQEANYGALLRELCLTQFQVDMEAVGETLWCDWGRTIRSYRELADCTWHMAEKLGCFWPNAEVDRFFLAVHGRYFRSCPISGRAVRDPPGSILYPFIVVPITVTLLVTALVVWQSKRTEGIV
Experimental: Example 6: CGRP Receptor Antagonist Activity Measured by cAMP Assay
CGRP receptor agonists increase intracellular cyclic adenosine mono-phosphate (cAMP). CGRP receptor antagonists can reduce the agonist effect. Antagonist activity was assessed by measurement of cyclic adenosine mono-phosphate (cAMP) using cell line stably expressing the hCGRP receptor (GeneBLAzer® CALCRL:RAMP1-CRE-bla Freestyle™ 293F, Invitrogen). hCGRP receptor expressing cells were maintained in DMEM high-glucose with GlutaMAX™ containing 10% (v/v) FBS, 0.1 mM NEAA, 25 mM HEPES, 5 ug/ml Blasticidin, 100 ug/ml Hygromycin, and 400 ug/ml Geneticin at 37° C. under 5% CO2 in a humidified atmosphere. For cAMP measurement, cells were washed once with 5 ml 1×PBS, cell maintenance media was replaced with compound buffer ((CB): DMEM containing 0.1% BSA and 0.5 mM IBMX), and flasks were incubated for 1 hour at 37° C. under 5% CO2 in a humidified atmosphere. Cells were removed from culture flasks using non-enzymatic cell dissociation buffer and harvested in CB. The reaction was performed in 384 well white small volume plates (Greiner) at a density of 10,000 cells/well. Cells were exposed to varying concentrations of antagonist compounds for 30 minutes in the presence of a fixed concentration of agonist (human α-CGRP). cAMP levels were measured using an HTRF (homogeneous time resolved fluorescence)-based competitive cAMP immunoassay (cAMP Dynamic 2 Kit, Cisbio), according to the manufacturer's instructions. […] Reported parameters include antagonist potency IC50 (the concentration causing half-maximal inhibition of the agonist response for antagonist compounds) and efficacy (% MPE: percent of the maximal possible effect).

Structure (SMILES)	Emax [1] [%]	IC50 [1] [nM]	selectivity ratio CGRP/AM2 [1]	Emax [2] [%]	IC50 [2] [nM]
CC(C)[C@@H]1NC(=O)[C@H](CC(=O)O)NC(=O)[C@H](CCCN)NC(=O)[C@@H](NC(=O)[C@H](Cc2ccc(O)cc2)NC(=O)[C@H](NC(=O)c2ccccn2)C(C)C)CSSC[C@@H](C(=O)N[C@@H](Cc2cccnc2)C(N)=O)NC(=O)[C@H](Cc2ccc(CO)cc2)NC(=O)[C@@H]2CCCN2C(=O)CNC1=O [Compound 25, Picolinoyl-D-Val-Tyr-c(Cys-Orn-Asp-Val-Gly-Pro-Phe(4-CH2OH)-Cys)-3Pal-NH2] (Picolinoyl-[dV]YC[Orn]DVGP[X5]C[3Pal]-NH2; disulfide 3-10)	100	78	1071	100	0.07
CC(C)[C@@H]1NC(=O)[C@H](CC(=O)O)NC(=O)[C@H](CCCNC(N)=NC#N)NC(=O)[C@@H](NC(=O)[C@H](Cc2ccc(O)cc2)NC(=O)[C@H](NC(=O)c2ccccn2)C(C)C)CSSC[C@@H](C(=O)N[C@@H](Cc2cccnc2)C(N)=O)NC(=O)[C@H](Cc2ccccc2)NC(=O)[C@@H]2CCCN2C(=O)CNC1=O [Compound 26, Picolinoyl-D-Val-Tyr-c(Cys-Arg(CN)-Asp-Val-Gly-Pro-Phe-Cys)-3Pal-NH2] (Picolinoyl-[dV]YC[X15]DVGPFC[3Pal]-NH2; disulfide 3-10)	100	–	–	100	–
CC(C)[C@@H]1NC(=O)[C@H](CC(=O)O)NC(=O)[C@H](CCCNc2nc(N)n[nH]2)NC(=O)[C@@H](NC(=O)[C@H](Cc2ccc(O)cc2)NC(=O)[C@H](NC(=O)c2ccccn2)C(C)C)CSSC[C@@H](C(=O)N[C@@H](Cc2cccnc2)C(N)=O)NC(=O)[C@H](Cc2ccccc2)NC(=O)[C@@H]2CCCN2C(=O)CNC1=O [Compound 27, Picolinoyl-D-Val-Tyr-c(Cys-Orn(Atz)-Asp-Val-Gly-Pro-Phe-Cys)-3Pal-NH2] (Picolinoyl-[dV]YC[Orn](Triazol3yl(1,2,4-5-NH2))DVGPFC[3Pal]-NH2; disulfide 3-10)	98	119	765	100	0.15

Further lines, results first:

Emax [1] [%]	IC50 [1] [nM]	selectivity ratio CGRP/AM2 [1]	Emax [2] [%]	IC50 [2] [nM]	Structure (SMILES)
99	–	–	100	–	CNC(=N)NCCC[C@@H]1NC(=O)[C@@H](NC(=O)[C@H](Cc2ccc(O)cc2)NC(=O)[C@H](NC(=O)c2ccccn2)C(C)C)CSSC[C@@H](C(=O)N[C@@H](Cc2cccnc2)C(N)=O)NC(=O)[C@H](Cc2ccccc2)NC(=O)[C@@H]2CCCN2C(=O)CNC(=O)[C@H](C(C)C)NC(=O)[C@H](CC(=O)O)NC1=O [Compound 28, Picolinoyl-D-Val-Tyr-c(Cys-Arg(Me)-Asp-Val-Gly-Pro-Phe-Cys)-3Pal-NH2] (Picolinoyl-[dV]YC[Arg(Me)]DVGPFC[3Pal]-NH2; disulfide 3-10)
98	148	1699	100	0.09	CC(C)[C@@H]1NC(=O)[C@H](CC(=O)O)NC(=O)[C@H](CCCN)NC(=O)[C@@H](NC(=O)[C@H](Cc2ccc(O)cc2)NC(=O)[C@H](NC(=O)c2ncccc2F)C(C)C)CSSC[C@@H](C(=O)N[C@@H](Cc2cccnc2)C(N)=O)NC(=O)[C@H](Cc2ccc(CO)cc2)NC(=O)[C@@H]2CCCN2C(=O)CNC1=O [Compound 29, Picolinoyl(3-F)-D-Val-Tyr-c(Cys-Orn-Asp-Val-Gly-Pro-Phe(4-CH2OH)-Cys)-3Pal-NH2] (X1-[dV]YC[Orn]DVGP[X5]C[3Pal]-NH2; disulfide 3-10)
98	700	6628	100	0.11	CC(C)NCCC[C@@H]1NC(=O)[C@@H](NC(=O)[C@H](Cc2ccccc2C(N)=O)NC(=O)[C@H](NC(=O)c2ncco2)C(C)C)CSSC[C@@H](C(=O)N[C@@H](Cc2cccnc2)C(N)=O)NC(=O)[C@H](Cc2ccccc2)NC(=O)[C@@H]2CCCN2C(=O)CNC(=O)[C@H](C(C)C)NC(=O)[C@H](CC(=O)O)NC1=O [Compound 30, Oxazole-2-carbonyl-D-Val-Phe(2-Cbm)-c(Cys-Orn(iPr)-Asp-Val-Gly-Pro-Phe-Cys)-3Pal-NH2] (Oxazole2carbonyl-[dV][Phe(2-CONH2)]C[Orn(iPr)]DVGPFC[3Pal]-NH2; disulfide 3-10)
